The test system of the assay is MDA-MB-231. In words: cells. Conditions: Homo sapiens, MDA-MB-231, 72 h.

Description: Cytotoxicity against human MDA-MB-231 cells after 72 hrs by MTT assay

One may read the IC50 as the concentration that inhibits the measured activity by half. A high value points to weaker potency. For `CO[C@H]1/C=C\C=C(/C)C(=O)NC2=CC(=O)C(NCCCCCCNC(=O)/C=C/c3ccc(C)cc3)=C(C[C@@H](C)C[C@H](OC)[C@H](O)[C@@H](C)/C=C(\C)[C@@H]1OC(N)=O)C2=O`, the IC50 is 3.96 µM.
Then `CO[C@H]1/C=C\C=C(/C)C(=O)NC2=CC(=O)C(NCCCCCCNC(=O)c3cc(O)cc(O)c3)=C(C[C@@H](C)C[C@H](OC)[C@H](O)[C@@H](C)/C=C(\C)[C@@H]1OC(N)=O)C2=O`, with 4.35 µM; and `CO[C@H]1/C=C\C=C(/C)C(=O)NC2=CC(=O)C(NCCCCCCNC(=O)c3cncnc3)=C(C[C@@H](C)C[C@H](OC)[C@H](O)[C@@H](C)/C=C(\C)[C@@H]1OC(N)=O)C2=O`, with 1.22 µM; and `CO[C@H]1/C=C\C=C(/C)C(=O)NC2=CC(=O)C(NCCCCCCNC(=O)c3ccccc3Cl)=C(C[C@@H](C)C[C@H](OC)[C@H](O)[C@@H](C)/C=C(\C)[C@@H]1OC(N)=O)C2=O`, with 3.39 µM.
Under `CO[C@H]1/C=C\C=C(/C)C(=O)NC2=CC(=O)C(NCCCCCCNC(=O)/C=C/c3ccc(O)c(O)c3)=C(C[C@@H](C)C[C@H](OC)[C@H](O)[C@@H](C)/C=C(\C)[C@@H]1OC(N)=O)C2=O` stands 3.93 µM.
Then `CO[C@H]1/C=C\C=C(/C)C(=O)NC2=CC(=O)C(NCCCCCCNC(=O)/C=C/c3cccc(Cl)c3)=C(C[C@@H](C)C[C@H](OC)[C@H](O)[C@@H](C)/C=C(\C)[C@@H]1OC(N)=O)C2=O`, with 5.23 µM; and `CO[C@H]1/C=C\C=C(/C)C(=O)NC2=CC(=O)C(NCCCCCCNC(=O)c3ccccc3O)=C(C[C@@H](C)C[C@H](OC)[C@H](O)[C@@H](C)/C=C(\C)[C@@H]1OC(N)=O)C2=O`, with 6.04 µM.
`CO[C@H]1/C=C\C=C(/C)C(=O)NC2=CC(=O)C(NCCCCCCNC(=O)c3cccs3)=C(C[C@@H](C)C[C@H](OC)[C@H](O)[C@@H](C)/C=C(\C)[C@@H]1OC(N)=O)C2=O` came in with an IC50 of 3.03 µM.
In the case of `COc1ccc(OC)c(/C=C/C(=O)NCCCCCCNC2=C3C[C@@H](C)C[C@H](OC)[C@H](O)[C@@H](C)/C=C(\C)[C@H](OC(N)=O)[C@@H](OC)/C=C\C=C(/C)C(=O)NC(=CC2=O)C3=O)c1`, the IC50 was 8.15 µM.
Then `CO[C@H]1/C=C\C=C(/C)C(=O)NC2=CC(=O)C(NCCCCNC(=O)c3ccccn3)=C(C[C@@H](C)C[C@H](OC)[C@H](O)[C@@H](C)/C=C(\C)[C@@H]1OC(N)=O)C2=O`, with 3.14 µM.
Then `CO[C@H]1/C=C\C=C(/C)C(=O)NC2=CC(=O)C(NCCCCNC(=O)c3cccnc3)=C(C[C@@H](C)C[C@H](OC)[C@H](O)[C@@H](C)/C=C(\C)[C@@H]1OC(N)=O)C2=O`, with 4.09 µM; and `CO[C@H]1/C=C\C=C(/C)C(=O)NC2=CC(=O)C(NCCCCCCNC(=O)c3cncc(Br)c3)=C(C[C@@H](C)C[C@H](OC)[C@H](O)[C@@H](C)/C=C(\C)[C@@H]1OC(N)=O)C2=O`, with 2.35 µM.
With `CO[C@H]1/C=C\C=C(/C)C(=O)NC2=CC(=O)C(NCC3CCN(C(=O)c4cccnc4)CC3)=C(C[C@@H](C)C[C@H](OC)[C@H](O)[C@@H](C)/C=C(\C)[C@@H]1OC(N)=O)C2=O`, the IC50 is 2.03 µM.
In the case of `CO[C@H]1/C=C\C=C(/C)C(=O)NC2=CC(=O)C(NCCCCCCNC(=O)c3ccncn3)=C(C[C@@H](C)C[C@H](OC)[C@H](O)[C@@H](C)/C=C(\C)[C@@H]1OC(N)=O)C2=O`, half-maximal inhibition (IC50) was put at 0.92 µM.
Then `CO[C@H]1/C=C\C=C(/C)C(=O)NC2=CC(=O)C(NCCCCCCNC(=O)c3ccncc3)=C(C[C@@H](C)C[C@H](OC)[C@H](O)[C@@H](C)/C=C(\C)[C@@H]1OC(N)=O)C2=O`, with 0.89 µM.
Then `CO[C@H]1/C=C\C=C(/C)C(=O)NC2=CC(=O)C(NCCCCNC(=O)c3ccccc3O)=C(C[C@@H](C)C[C@H](OC)[C@H](O)[C@@H](C)/C=C(\C)[C@@H]1OC(N)=O)C2=O`, with 4.9 µM; and `CO[C@H]1/C=C\C=C(/C)C(=O)NC2=CC(=O)C(NCCCCNC(=O)c3ccncc3)=C(C[C@@H](C)C[C@H](OC)[C@H](O)[C@@H](C)/C=C(\C)[C@@H]1OC(N)=O)C2=O`, with 3.45 µM.
Under `CO[C@H]1/C=C\C=C(/C)C(=O)NC2=CC(=O)C(NCCCCNC(=O)c3nc(C)c(C)nc3C)=C(C[C@@H](C)C[C@H](OC)[C@H](O)[C@@H](C)/C=C(\C)[C@@H]1OC(N)=O)C2=O` stands 8.45 µM; under `CO[C@H]1/C=C\C=C(/C)C(=O)NC2=CC(=O)C(NCCCCCCNC(=O)/C=C/c3ccc(OC(F)(F)F)cc3)=C(C[C@@H](C)C[C@H](OC)[C@H](O)[C@@H](C)/C=C(\C)[C@@H]1OC(N)=O)C2=O`, above 10 µM.
`CO[C@H]1/C=C\C=C(/C)C(=O)NC2=CC(=O)C(NCCCCCCNC(=O)/C=C/c3ccccc3C)=C(C[C@@H](C)C[C@H](OC)[C@H](O)[C@@H](C)/C=C(\C)[C@@H]1OC(N)=O)C2=O` came in with an IC50 of 6.91 µM.
With `CO[C@H]1/C=C\C=C(/C)C(=O)NC2=CC(=O)C(NCCCCCCNC(=O)c3ccc(I)cc3)=C(C[C@@H](C)C[C@H](OC)[C@H](O)[C@@H](C)/C=C(\C)[C@@H]1OC(N)=O)C2=O`, the IC50 came out at 3.96 µM.
Regarding `CO[C@H]1/C=C\C=C(/C)C(=O)NC2=CC(=O)C(NCCCCCCNC(=O)c3ccc(Cl)cc3)=C(C[C@@H](C)C[C@H](OC)[C@H](O)[C@@H](C)/C=C(\C)[C@@H]1OC(N)=O)C2=O`, the IC50 was 4.1 µM.
In turn, `CO[C@H]1/C=C\C=C(/C)C(=O)NC2=CC(=O)C(NCCCCCCNC(=O)/C=C/c3ccc(C(F)(F)F)cc3)=C(C[C@@H](C)C[C@H](OC)[C@H](O)[C@@H](C)/C=C(\C)[C@@H]1OC(N)=O)C2=O` showed an IC50 above 10 µM.
With `CO[C@H]1/C=C\C=C(/C)C(=O)NC2=CC(=O)C(NCCCCCCNC(=O)/C=C/c3cccc(C)c3)=C(C[C@@H](C)C[C@H](OC)[C@H](O)[C@@H](C)/C=C(\C)[C@@H]1OC(N)=O)C2=O`, half-maximal inhibition (IC50) required 2.55 µM.
`COc1cc(/C=C/C(=O)NCCCCCCNC2=C3C[C@@H](C)C[C@H](OC)[C@H](O)[C@@H](C)/C=C(\C)[C@H](OC(N)=O)[C@@H](OC)/C=C\C=C(/C)C(=O)NC(=CC2=O)C3=O)cc(OC)c1` showed an IC50 of 1.7 µM.
Then `CO[C@H]1/C=C\C=C(/C)C(=O)NC2=CC(=O)C(NCCCCCCNC(=O)c3ccccn3)=C(C[C@@H](C)C[C@H](OC)[C@H](O)[C@@H](C)/C=C(\C)[C@@H]1OC(N)=O)C2=O`, with 1.73 µM; and `CO[C@H]1/C=C\C=C(/C)C(=O)NC2=CC(=O)C(NCC3CCN(C(=O)c4cnc(C)c(C)n4)CC3)=C(C[C@@H](C)C[C@H](OC)[C@H](O)[C@@H](C)/C=C(\C)[C@@H]1OC(N)=O)C2=O`, with 2.33 µM.
Molecule `COc1ccc(/C=C/C(=O)NCCCCCCNC2=C3C[C@@H](C)C[C@H](OC)[C@H](O)[C@@H](C)/C=C(\C)[C@H](OC(N)=O)[C@@H](OC)/C=C\C=C(/C)C(=O)NC(=CC2=O)C3=O)cc1O` came in with an IC50 of 1.47 µM.
Then `CO[C@H]1/C=C\C=C(/C)C(=O)NC2=CC(=O)C(NCCCCNC(=O)/C=C/c3ccc(O)cc3)=C(C[C@@H](C)C[C@H](OC)[C@H](O)[C@@H](C)/C=C(\C)[C@@H]1OC(N)=O)C2=O`, with 1.66 µM.
Then `COc1ccc(/C=C/C(=O)NCCCCCCNC2=C3C[C@@H](C)C[C@H](OC)[C@H](O)[C@@H](C)/C=C(\C)[C@H](OC(N)=O)[C@@H](OC)/C=C\C=C(/C)C(=O)NC(=CC2=O)C3=O)cc1`, with 4.54 µM; and `CO[C@H]1/C=C\C=C(/C)C(=O)NC2=CC(=O)C(NCCCCCCNC(=O)c3nc(C)c(C)nc3C)=C(C[C@@H](C)C[C@H](OC)[C@H](O)[C@@H](C)/C=C(\C)[C@@H]1OC(N)=O)C2=O`, with 3.12 µM.
Take `CO[C@H]1/C=C\C=C(/C)C(=O)NC2=CC(=O)C(NCCCCCCNC(=O)/C=C/c3ccc(N(C)C)cc3)=C(C[C@@H](C)C[C@H](OC)[C@H](O)[C@@H](C)/C=C(\C)[C@@H]1OC(N)=O)C2=O`: it took 2.11 µM to reach half-maximal inhibition (IC50).
Under `CO[C@H]1/C=C\C=C(/C)C(=O)NC2=CC(=O)C(NCCCCCCNC(=O)c3ccc(Br)cc3)=C(C[C@@H](C)C[C@H](OC)[C@H](O)[C@@H](C)/C=C(\C)[C@@H]1OC(N)=O)C2=O` stands 4.65 µM.
`COc1ccc(/C=C/C(=O)NCCCCCCNC2=C3C[C@@H](C)C[C@H](OC)[C@H](O)[C@@H](C)/C=C(\C)[C@H](OC(N)=O)[C@@H](OC)/C=C\C=C(/C)C(=O)NC(=CC2=O)C3=O)c(OC)c1OC` displayed an IC50 of 1.86 µM.
Then `CO[C@H]1/C=C\C=C(/C)C(=O)NC2=CC(=O)C(NCCCCCCNC(=O)/C=C/c3ccccc3[N+](=O)[O-])=C(C[C@@H](C)C[C@H](OC)[C@H](O)[C@@H](C)/C=C(\C)[C@@H]1OC(N)=O)C2=O`, with 1.61 µM; and `COc1ccccc1/C=C/C(=O)NCCCCCCNC1=C2C[C@@H](C)C[C@H](OC)[C@H](O)[C@@H](C)/C=C(\C)[C@H](OC(N)=O)[C@@H](OC)/C=C\C=C(/C)C(=O)NC(=CC1=O)C2=O`, with 3.32 µM; and `CO[C@H]1/C=C\C=C(/C)C(=O)NC2=CC(=O)C(NCCCCCCNC(=O)/C=C/c3cccc([N+](=O)[O-])c3)=C(C[C@@H](C)C[C@H](OC)[C@H](O)[C@@H](C)/C=C(\C)[C@@H]1OC(N)=O)C2=O`, with 1.02 µM.
Under `CO[C@H]1/C=C\C=C(/C)C(=O)NC2=CC(=O)C(NCC3CCN(C(=O)c4ccncc4)CC3)=C(C[C@@H](C)C[C@H](OC)[C@H](O)[C@@H](C)/C=C(\C)[C@@H]1OC(N)=O)C2=O` stands 2.84 µM; under `CO[C@H]1/C=C\C=C(/C)C(=O)NC2=CC(=O)C(NCCCCCCNC(=O)c3ccc(F)cc3)=C(C[C@@H](C)C[C@H](OC)[C@H](O)[C@@H](C)/C=C(\C)[C@@H]1OC(N)=O)C2=O`, 4.16 µM.
Then `CO[C@H]1/C=C\C=C(/C)C(=O)NC2=CC(=O)C(NCCCCCCNC(=O)/C=C/c3ccccc3)=C(C[C@@H](C)C[C@H](OC)[C@H](O)[C@@H](C)/C=C(\C)[C@@H]1OC(N)=O)C2=O`, with 5.14 µM.
For the molecule `COc1cccc(/C=C/C(=O)NCCCCCCNC2=C3C[C@@H](C)C[C@H](OC)[C@H](O)[C@@H](C)/C=C(\C)[C@H](OC(N)=O)[C@@H](OC)/C=C\C=C(/C)C(=O)NC(=CC2=O)C3=O)c1OC`, the midpoint of inhibition, the IC50, lay at 6.03 µM.
For `CO[C@H]1/C=C\C=C(/C)C(=O)NC2=CC(=O)C(NCC3CCN(C(=O)c4ccccn4)CC3)=C(C[C@@H](C)C[C@H](OC)[C@H](O)[C@@H](C)/C=C(\C)[C@@H]1OC(N)=O)C2=O`, 1.12 µM corresponded to half-maximal inhibition (IC50).
`CO[C@H]1/C=C\C=C(/C)C(=O)NC2=CC(=O)C(NCCCCCCNC(=O)c3cccnc3)=C(C[C@@H](C)C[C@H](OC)[C@H](O)[C@@H](C)/C=C(\C)[C@@H]1OC(N)=O)C2=O`: the midpoint of inhibition, the IC50, lay at 0.5 µM.

The record behind these values is ChEMBL document CHEMBL3352031, “Discovery of diamine-linked 17-aroylamido-17-demethoxygeldanamycins as potent Hsp90 inhibitors” (Eur J Med Chem, 2014).
